{"source": "ChEMBL document CHEMBL1201862", "about": "“PubChem BioAssay data set” (2004)", "key": {"[1]": {"target": "NAD-dependent protein deacylase sirtuin-5, mitochondrial (Homo sapiens, UniProt Q9NXA8)", "test": "sirtuin-5 deacylation blockers, concentration series – biochemical, fluorescence imaging, cherry-pick, set 5, dose response (AID 720591);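 note: desuccinylation of succinyl peptide AMC substrate read as fluorescence after trypsin release; potency of inhibitors that lower fluorescence and may act on trypsin instead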"}, "Major prion protein": {"target": "Major prion protein (Homo sapiens, UniProt P04156)", "assay_type": "functional, cell-based"}, "[2]": {"target": "T1, Heat shock factor protein 1 (Mus musculus, UniProt P38532)", "T1 sequence (P38532 whole entry)": "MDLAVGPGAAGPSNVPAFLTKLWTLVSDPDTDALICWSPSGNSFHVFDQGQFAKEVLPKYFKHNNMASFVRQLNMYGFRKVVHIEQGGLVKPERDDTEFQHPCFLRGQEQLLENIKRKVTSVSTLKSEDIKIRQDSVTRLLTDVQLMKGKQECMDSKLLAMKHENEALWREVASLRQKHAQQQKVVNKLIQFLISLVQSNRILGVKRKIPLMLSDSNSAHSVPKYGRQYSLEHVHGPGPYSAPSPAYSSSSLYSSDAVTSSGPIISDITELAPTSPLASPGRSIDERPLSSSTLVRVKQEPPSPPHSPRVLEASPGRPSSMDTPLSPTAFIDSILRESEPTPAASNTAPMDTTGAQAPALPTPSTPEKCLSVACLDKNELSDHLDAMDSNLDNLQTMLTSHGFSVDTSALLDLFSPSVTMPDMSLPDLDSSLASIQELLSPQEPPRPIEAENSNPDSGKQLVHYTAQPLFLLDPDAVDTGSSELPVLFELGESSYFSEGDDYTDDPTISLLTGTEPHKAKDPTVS", "test": "decrease of HSF1-responsive luciferase luminescence – cell-based, NIH3T3, dose retest, confirmation (AID 2382);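 note: NIH3T3 fibroblasts with HSF1-driven luciferase reporter stressed by proteasome inhibitor MG132; luminescence from HSF1-driven luciferase expression after 8 hours of MG132 stress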", "assay_type": "functional"}, "HEK293": {"system": "HEK293", "test": "cells", "assay_type": "functional, cell-based", "details": "Homo sapiens"}, "[3]": {"target": "T2, Nuclear receptor subfamily 0 group B member 1 (Homo sapiens, UniProt P51843)", "T2 sequence (P51843 whole entry)": "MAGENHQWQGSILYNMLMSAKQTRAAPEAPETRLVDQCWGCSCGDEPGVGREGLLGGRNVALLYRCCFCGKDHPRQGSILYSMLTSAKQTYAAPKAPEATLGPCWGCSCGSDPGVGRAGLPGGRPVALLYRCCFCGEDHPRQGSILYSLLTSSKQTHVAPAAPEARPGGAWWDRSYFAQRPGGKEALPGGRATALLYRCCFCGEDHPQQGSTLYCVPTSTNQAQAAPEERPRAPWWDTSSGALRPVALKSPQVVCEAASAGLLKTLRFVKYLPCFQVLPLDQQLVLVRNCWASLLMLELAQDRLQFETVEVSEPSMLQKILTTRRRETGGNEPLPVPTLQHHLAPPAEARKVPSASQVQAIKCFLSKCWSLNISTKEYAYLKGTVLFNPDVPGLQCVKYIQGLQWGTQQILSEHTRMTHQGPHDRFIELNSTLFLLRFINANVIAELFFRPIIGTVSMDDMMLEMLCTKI", "test": "Luminescence-based cell-based high throughput dose response assay for inhibitors of the orphan nuclear receptor subfamily 0, group B, member 1 (DAX1; NR0B1). [Related pubchem assays (depositor defined):AID504766, AID504790]", "assay_type": "functional"}, "Prothrombin": {"target": "Prothrombin (Homo sapiens, UniProt P00734)", "test": "Thrombin 1536 HTS Dose Response Confirmation. [Related pubchem assays: 1046 (Thrombin 1536 HTS; hits were confirmed in this assay)]", "assay_type": "functional"}, "[4]": {"test": "HEK-293T viability loss after treatment – luminescence, T-cell screen hits, cytotoxicity control for TCR NF-kB inhibitor project, dose response (AID 489026);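 note: cells exposed to compound about 14 hours before the viability readout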", "assay_type": "functional, cell-based"}, "Protein Wnt-3a": {"target": "Protein Wnt-3a (Mus musculus, UniProt P27467)", "test": "antagonism of Wnt3a pathway luciferase reporter – Wnt-LIGHT cells, luminescence, selectivity assay for Gli-SUFU antagonist project, dose response (AID 651570);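 note: Wnt-LIGHT reporter cells stimulated with conditioned medium from Wnt3a-producing cells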", "assay_type": "functional", "details": "read-out: IC50_Mean"}, "[5]": {"target": "T3, Corticotropin-releasing factor receptor 2/Corticotropin-releasing factor-binding protein (Homo sapiens, UniProt P24387+Q13324)", "T3 sequence (Q13324 whole entry)": "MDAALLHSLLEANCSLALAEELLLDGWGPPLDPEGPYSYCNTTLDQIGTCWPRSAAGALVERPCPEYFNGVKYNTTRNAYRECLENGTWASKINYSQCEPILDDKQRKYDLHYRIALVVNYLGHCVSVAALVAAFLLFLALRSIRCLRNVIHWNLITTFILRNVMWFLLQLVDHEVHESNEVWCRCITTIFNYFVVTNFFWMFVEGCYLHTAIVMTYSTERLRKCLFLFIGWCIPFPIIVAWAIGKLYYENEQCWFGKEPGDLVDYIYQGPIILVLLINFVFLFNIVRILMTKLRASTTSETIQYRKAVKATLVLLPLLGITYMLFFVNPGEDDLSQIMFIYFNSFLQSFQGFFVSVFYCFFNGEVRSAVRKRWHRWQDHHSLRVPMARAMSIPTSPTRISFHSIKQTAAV", "T3 sequence (P24387 whole entry)": "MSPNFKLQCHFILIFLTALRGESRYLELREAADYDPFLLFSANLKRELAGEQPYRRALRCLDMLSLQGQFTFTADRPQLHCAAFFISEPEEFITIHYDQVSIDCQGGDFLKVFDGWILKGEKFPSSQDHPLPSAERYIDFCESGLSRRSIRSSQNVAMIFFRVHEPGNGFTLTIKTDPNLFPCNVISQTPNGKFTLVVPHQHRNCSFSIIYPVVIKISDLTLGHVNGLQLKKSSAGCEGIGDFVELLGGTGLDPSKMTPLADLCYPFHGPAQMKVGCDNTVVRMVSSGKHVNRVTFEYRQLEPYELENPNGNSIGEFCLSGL", "test": "Dose Response confirmation of uHTS hits for small molecule antagonists of the CRF-binding protein and CRF-R2 receptor complex.", "assay_type": "functional", "details": "read-out: IC50_Mean"}, "[6]": {"target": "T3, Corticotropin-releasing factor receptor 2/Corticotropin-releasing factor-binding protein", "test": "activators of CRF receptor 2 with binding protein – uHTS hits, confirmation (AID 602473)", "assay_type": "functional", "details": "read-out: EC50_Mean"}, "[7]": {"test": "blockers of CRF-binding protein–CRF-R2 complex – cell-based, uHTS hits, 384-well, dose response (AID 651639)", "assay_type": "functional, Homo sapiens", "details": "read-out: IC50_Mean"}, "[8]": {"target": "Voltage-gated inwardly rectifying potassium channel KCNH2 (Homo sapiens, UniProt Q12809)", "test": "concentration-dependent hERG rescue from blockers – cell-based, thallium flux, dose response (AID 2121)", "assay_type": "ADME"}, "[9]": {"target": "T4, Carboxy-terminal domain RNA polymerase II polypeptide A small phosphatase 1 (Homo sapiens, UniProt Q9GZU7)", "T4 sequence (Q9GZU7 whole entry)": "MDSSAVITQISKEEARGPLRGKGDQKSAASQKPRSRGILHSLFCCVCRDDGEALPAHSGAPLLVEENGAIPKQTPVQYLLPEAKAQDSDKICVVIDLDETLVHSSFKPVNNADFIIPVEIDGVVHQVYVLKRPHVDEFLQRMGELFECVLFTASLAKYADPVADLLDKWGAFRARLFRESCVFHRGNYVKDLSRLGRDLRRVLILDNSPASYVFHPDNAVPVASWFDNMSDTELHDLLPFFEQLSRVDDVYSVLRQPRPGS", "test": "CTDSP1 inhibitors, concentration-response, biochemical, absorbance readout, ultra-high-throughput screen actives (AID 540297)", "assay_type": "functional"}, "[10]": {"target": "T5, Low molecular weight phosphotyrosine protein phosphatase (Homo sapiens, UniProt P24666)", "T5 sequence (P24666 whole entry)": "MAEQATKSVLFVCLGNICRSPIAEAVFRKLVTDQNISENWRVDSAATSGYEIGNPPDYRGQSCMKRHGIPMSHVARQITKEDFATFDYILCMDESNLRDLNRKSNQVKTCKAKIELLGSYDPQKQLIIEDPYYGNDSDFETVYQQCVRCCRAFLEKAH", "assay_type": "functional", "details": "read-out: IC50_Mean"}}, "note": "The source made the active and inactive calls.", "data": [{"smiles": "CCc1c(C)nc2c(Br)cccc2c1SCCC#N", "values": [{"measurement": "AC50", "setting": "[1]", "result": "> 30 µM (inactive)"}, {"measurement": "IC50", "setting": "Major prion protein", "result": "2.52 µM (active)"}, {"measurement": "IC50", "setting": "cells", "result": "> 138 µM (inactive)"}]}, {"smiles": "CC1(C)Cc2c(sc3nc(C4CC4)n(N)c(=O)c23)CO1", "values": [{"measurement": "EC50", "setting": "[2]", "result": "> 195 µM (not active)"}, {"measurement": "IC50", "setting": "HEK293", "result": "> 67.6 µM (inactive)"}, {"measurement": "IC50", "setting": "[3]", "result": "> 67.6 µM (inactive)"}]}, {"smiles": "NNC(=O)CN1C(=O)Nc2ccc(Br)cc2C1c1ccccc1", "note": "(configuration not stated)", "values": [{"measurement": "IC50", "setting": "Prothrombin", "result": "> 50 µM (not active)"}]}, {"smiles": "CCOC(=O)N1CCN(C(=O)C2CCCN(S(=O)(=O)c3cc(C)ccc3OC)C2)CC1", "note": "(configuration not stated)", "values": [{"measurement": "IC50", "setting": "Prothrombin", "result": "> 50 µM (not active)"}]}, {"smiles": "COc1cc(C(=O)Nc2ccc3c(c2)ncn3C)cc(OC)c1OC", "values": [{"measurement": "IC50", "setting": "[4]", "result": "> 80 µM (inactive)"}, {"measurement": "IC50", "setting": "Major prion protein", "result": "6.23 µM (active)"}, {"measurement": "IC50", "setting": "cells", "result": "> 138 µM (inactive)"}]}, {"smiles": "CCCCOc1ccc(N2C(N)=NC(N)=NC23CCCCC3)cc1", "values": [{"measurement": "IC50", "setting": "Protein Wnt-3a", "result": "18.3 µM (active)"}]}, {"smiles": "COc1ccc(NC(=O)c2c(F)cccc2F)cc1S(=O)(=O)Nc1ccc(Br)cc1", "values": [{"measurement": "IC50", "setting": "[5]", "result": "20 µM (active)"}, {"measurement": "EC50", "setting": "[6]", "result": "> 53 µM (inactive)"}, {"measurement": "IC50", "setting": "[7]", "result": "18.9 µM (active)"}]}, {"smiles": "Cc1cccc(NC(=S)NC(=O)c2cc(-c3ccccc3)nc3ccccc23)c1", "values": [{"measurement": "EC50", "setting": "[8]", "result": "0.53 µM (active)"}]}, {"smiles": "NC(=O)c1cccnc1Nc1cccc([N+](=O)[O-])c1", "values": [{"measurement": "EC50", "setting": "[8]", "result": "2.98 µM (active)"}]}, {"smiles": "O=C(/C=C/c1cccc([N+](=O)[O-])c1)Nc1ccc(NC(=O)c2cccs2)cc1", "values": [{"measurement": "IC50", "setting": "[9]", "result": "4.11 µM (active)"}, {"measurement": "IC50", "setting": "[10]", "result": "27.3 µM (inactive)"}]}, {"smiles": "COc1ccc(C(=O)C2CCCN(Cc3c[nH]nc3-c3ccccc3)C2)cc1OC", "note": "(configuration not stated)", "values": [{"measurement": "AC50", "setting": "[1]", "result": "> 30 µM (inactive)"}]}, {"smiles": "CCc1nnc(NC(=O)CCC(=O)N2CCCC2)s1", "values": [{"measurement": "IC50", "setting": "Prothrombin", "result": "> 50 µM (not active)"}]}, {"smiles": "CN(C(=S)NC(=O)c1ccc(F)cc1)C1CCCCC1", "values": [{"measurement": "EC50", "setting": "[8]", "result": "8.79 µM (active)"}]}]}
